Measured values from patent publication US4511574A, “N-(4-Phenyl-2-thiazolyl)carbamate derivatives” (Mitsui Toatsu Kagaku Kabushiki Kaisha, priority 1981, dated 1985).
Counter-ions that a name gives are not always drawn.

How the values were obtained:
[1] = tested on: adjuvant arthritis (Mycobacterium tuberculosis adjuvant); experiment: Adjuvant arthritis test; assay type: in vivo, SD male rats; details: 5 mg/Kg subcutaneous, 9 times; left hind leg; average value from 16th to 20th days; * P<0.05, ** P<0.01, *** P<0.001 vs control
From the text: Next, a result of tests made on immuno-modulating activity in the adjuvant arthritis test is shown.
The adjuvant arthritis in rats caused by the injection of a Mycobacterium tuberculosis adjuvant is often utilized for a model test of chronic rheumatoid arthritis in the human.
The mechanism of manifestation of this disease has not completely been elucidated, but it is known that the cellular immunity plays an important role. The immuno-modulating activity of the compounds according to this invention was investigated in accordance with this known adjuvant arthritis test.
8-Week-old SD male rats were used for the test. In 0.1 ml of fluid paraffin, 0.4 mg of dry dead cells of Mycobacterium tuberculosis were suspended, and the suspension was injected under the heel skin of the right hind leg of each rat. Each of the compounds according to this invention was subcutaneously administered 9 times in total before and after the injection of the adjuvant. Each of the compounds of the present invention was dissolved or suspended in a 0.2% solution of carboxymethylcellulose in physiological saline and administered to each rat at a dose of 5 mg per Kg of the body weight. The swollen volume of the left hind leg was measured during the period extending from the day of injection to the day of completion of the test, and the swelling ratio was calculated. For comparison, a similar test was conducted using Levamisole hydrochloride. F.t tests were carried out on the test results obtained.

[2] = tested on: delayed hypersensitivity induced by picryl chloride; experiment: Reinforcement test of delayed hypersensitivity (picryl chloride); assay type: in vivo, ICR male mice; details: 50 mg/Kg oral, simultaneously with sensitization; 24 hours after challenging; average of both pinnae of eight mice; * P<0.05, ** P<0.01 vs control
From the text: This feature will hereinafter be described by way of test examples. Various test systems using animals have been routinely adopted for the determination of immunomodulating activity.
The delayed hypersensitivity induced on a mouse when picryl chloride(2-chloro-1,3,5-trinitrobenzene) is applied onto the skin of the mouse is known as a typical cellular immunity.
This test system was used for the reinforcement tests of the delayed hypersensitivity.
Groups of eight ICR male mice, each having a body weight of about 30 g or so, were used for the test.
Sensitization was effected by applying a 3% solution of picryl chloride in a 4/1 mixture of olive oil and acetone onto the shaved abdomen of each of the mice.
Simultaneously with the sensitization, a solution or suspension of a compound according to this invention dissolved or suspended in a 0.2% solution of carboxymethyl cellulose in a physiological saline was orally administered to the mouse at a dose of 50 mg per Kg of its body weight. To each mouse of a control group, a 0.2% carboxymethylcellulose solution in a physiological saline was similarly administered.
The delayed hypersensitivity was induced 7 days after the sensitization by pinching each of the pinnae of each mouse with a pair of forceps whose tip portions were wrapped with a felt impregnated with a 1% solution of picryl chloride in olive oil and coating the pinnae with the solution. The thickness of each pinna was measured before the challenging and 24 hours after the challenging and the ratio of increase of the thickness (average value of both of the pinnae of the eight mice) is shown in Table 1.
For comparison, a similar test was carried out using Levamisole hydrochloride.
F.t tests were carried out on the thus-obtained test results.

[3] = tested on: ddY male mice; experiment: Acute toxicity test through oral administration; assay type: in vivo; details: five ddY male mice per group, watched 7 days
From the text: TEST EXAMPLE 3 (ACUTE TOXICITY TEST THROUGH ORAL ADMINISTRATION)
Test Procedures: To each of a group of five ddY male mice, was orally administered a medicine dissolved or suspended in physiological saline. They were watched for 7 days after the administration and an estimated LD50 value was obtained.

With `CCOC(=O)Nc1nc(-c2ccc([N+](=O)[O-])cc2)cs1` [drawing 11] as the molecule, how does the “Swell suppression ratio to control group” value [1] read?
Its value is 71.4%.

With `O=C(Nc1nc(-c2ccc([N+](=O)[O-])cc2)cs1)OCC(Cl)(Cl)Cl` [drawing 5] as the molecule, how does the “Ratio of Increase of Pinna Thickness” value [2] read?
The value was 36.1%.

For `CS(=O)(=O)c1ccc(-c2csc(NC(=O)OCC(Cl)(Cl)Cl)n2)cc1` [drawing 10], which “Swell suppression ratio to control group” value [1] is on record?
The value was 30.0%.

Which results are given for `c1ccc([C@H]2CN3CCSC3=N2)cc1` [Levamisole.HCl, Levamisole hydrochloride, reference compound]?
Ratio of Increase of Pinna Thickness [2]: 31.2%; Swell suppression ratio to control group [1]: 19.8%; estimated LD50 value [3]: 200 to 300 mg/kg

Which “Swell suppression ratio to control group” value [1] does the source give for `O=C(Nc1nc(-c2ccc([N+](=O)[O-])cc2)cs1)OCC(Cl)(Cl)Cl` [drawing 9] here?
The value was 45.0%.

How did the “Ratio of Increase of Pinna Thickness” value [2] turn out when `CCOC(=O)Nc1nc(-c2ccc(S(C)(=O)=O)cc2)cs1` [drawing 8] was run?
The value was 36.0%.

With `CS(=O)(=O)c1ccc(-c2csc(NC(=O)OCC(Cl)(Cl)Cl)n2)cc1` [drawing 6] as the molecule, how does the “Ratio of Increase of Pinna Thickness” value [2] read?
Its value is 37.8%.

With `CCOC(=O)Nc1nc(-c2ccc([N+](=O)[O-])cc2)cs1` [drawing 7] as the molecule, how does the “Ratio of Increase of Pinna Thickness” value [2] read?
The value was 34.8%.

`CCOC(=O)Nc1nc(-c2ccc(S(C)(=O)=O)cc2)cs1` [drawing 12] was tested. Which “Swell suppression ratio to control group” value [1] did it give?
The value was 47.6%.
